From publication PMC4259414, “HS-133, a novel fluorescent phosphatidylinositol 3-kinase inhibitor as a potential imaging and anticancer agent for targeted therapy” (Oncotarget, 2014) come the findings set out here.

The structures appear in SMILES notation. Read-outs that look alike come from different tables or passages of the source.

Data set [1] relates to HIF-1α and VEGF in SkBr3 cells. Nature of the data set: hypoxia-induced HIF-1α and VEGF, Western blotting and ELISA. The format is cell-based, human. The protocol:
Since HIF-1α is the major regulator of cellular adaptive responses to hypoxia, we examined the effect of HS-133 on the expression of the HIF-1α in SkBr3 cells. The cells were treated with various concentrations of HS-133 (1–50 μM) under hypoxic mimicking conditions induced by a treatment with 100 μM CoCl2 for 16 h. […] To further determine the effect of HS-133 on hypoxia-induced VEGF, an immediate downstream target gene of HIF-1α, the protein and production of VEGF were measured by western blotting and ELISA in the SkBr3 cells.
(§1) The cells were washed three times with ice-cold PBS before lysis, and were lysed with a buffer containing 1% Triton X-100, 1% Nonidet P-40 (NP-40), as well as protease and phosphatase inhibitor cocktails (GenDEPOT, Barker, TX). Equal amounts of protein were separated by 10% sodium dodecyl sulfate-polyacrylamide gel electrophoresis (SDS-PAGE) and transferred onto the polyvinylidene fluoride (PVDF) membranes (Millipore, Bedford, MA). Immunostaining was performed by incubating the blots with primary antibodies, followed by horseradish peroxidase (HRP)-conjugated secondary antibody and detected with an enhanced chemiluminescence (ECL) plus system (Amersham Biosciences, Piscataway, NJ). […]
The amount of VEGF secreted into the media was measured by sandwich ELISA. […] The absorbance at 450 nm was measured with a 96-well plate reader.
A general note: A western blot detects proteins with antibodies after separation by electrophoresis.

For data set [2], the system named is PI3K/Akt pathway in SkBr3 cells. Nature of the data set: Western blotting of PI3K/Akt signaling in SkBr3 cells. The following applies: SkBr3, 1–50 μM, 6 h. It is filed as cell-based, human. The protocol: It has been shown that breast tumor cell growth is closely related to the activation of the PI3K/Akt pathway. […] Therefore, we evaluated the effects of HS-133 on the PI3K/Akt pathway in breast cancer cells. The PI3K inhibitory activity of HS-133 was assessed in the SkBr3 cells.
as §1, with “NJ). The primary mouse antibodies against the following factors were used: p27 (Cell Signaling Technologies, Danvers, MA), cyclin D1, hypoxia-inducible factor-1α (HIF-1α, BD Biosciences, SanJose, CA), VEGF (Novus Biologicals, Littleton, CO) and β-actin (Abcam, Cambridge, MA).” for “NJ).”

The next data set deals with HUVECs. As to the kind of experiment: tube formation assay. It is filed as cell-based, human. The following applies: 20 h. As for the experimental part: To examine the effect of HS-133 on angiogenesis, a capillary tube formation assay using human umbilical vein endothelial cells (HUVECs) was performed. […] Cell migration is critical for the endothelial cells to form blood vessels during angiogenesis, and is necessary for tumor growth and metastasis. Thus, we conducted a wound migration assay to study the effect of HS-133 on cell migration. […] Considering that endothelial migration and tube formation have all highly relevant properties of angiogenesis, our results illustrated that HS-133 has the ability to block angiogenesis.
A 10 mg/ml (200 μl) of Matrigel (BD Biosciences) was polymerized for 30 min at 37°C. HUVECs were suspended in M199 (2% FBS) medium containing VEGF (50 ng/ml) at a density of 2.5 × 10^5 cells/ml, and 0.2 ml of cell suspension was added to each well coated with Matrigel, together with or without the indicated concentrations of HS-133 for 20 h. The morphological changes of the cells and tubes formed were observed under a phase-contrast microscope and photographed at 200× and 400× magnification.

A short description of data set [3]: pharmacokinetic study in mouse. The format is in vivo. The following applies: plasma, ICR mice; for AUC(0-t): read-out: AUC0–24hr; for half-life: read-out: T1/2, λ (converted).
In another data set the test system is T47D cells. Nature of the data set: cell viability MTT assay, T47D. It is filed as cell-based. The following applies: Homo sapiens, 48 h, read-out: IC50, cell growth inhibition. As for the experimental part:
(§2) To determine whether HS-133 can function as a novel anticancer compound, we tested the ability of this compound to inhibit the growth of breast cancer cell lines (SkBr3, T47D, and MCF-7) using an MTT assay. The cells were exposed to various concentrations (0.5–50 μM) of HS-133 for 48 h. As shown in Fig. 3A-C, HS-133 inhibited the growth of all three breast cancer cell lines in a dose-dependent manner.
(§3) Cell viability was performed by an MTT assay. Briefly, the SkBr3, T47D, and MCF-7 cells were plated at a density of 1-5 × 10^3 cells/well in a 96-well plate for 48 h. The medium was removed, and the cells were treated with either DMSO as control or various concentrations of HS-133. The final concentration of DMSO in the medium was ≤ 0.1% (v/v). After the cells were incubated for 48 h, 20 μl of MTT solutions (2 mg/ml) was added to each well for another 4 h at 37°C. The formazan crystals that formed were dissolved in DMSO (200 μl/well) via constant shaking for 5 min. The plate was then read on a microplate reader at 540 nm. Three replicate wells were used for each analysis. The median inhibitory concentration (IC50, defined as the drug concentration at which cell growth was inhibited by 50%) was assessed from the dose-response curves.
In general terms: Formazan colour is commonly taken as a measure of viable cells.

The next data set deals with MCF-7 cells. As to the kind of experiment: cell viability MTT assay, MCF-7. The format is cell-based. Conditions: Homo sapiens, MCF7, MCF-7, 48 h, read-out: IC50, cell growth inhibition. As for the experimental part:
as §2, §3

For orientation: Tmax means the time at which the peak concentration occurs. As usually defined, the AUC(0-inf) is the area under the concentration-time curve extrapolated to infinity. Broadly, the MRT is a mean duration of stay, worked out from the concentration-time curve. In general, clearance refers to the rate of elimination divided by the concentration. Broadly, the bioavailability is the share of a dose that reaches the circulation, judged against a reference dose that is usually intravenous. One may read the Cmax as the maximum level reached in the sampled fluid or tissue. One may read the IC50 as the point on the concentration scale where inhibition reaches its midpoint. As for `CC(=O)Nc1ccc(-c2nc3c(c(=O)n(C)c(=O)n3C)n2-c2cccc(F)c2)cc1` [HS-133, N-(4-(7-(3-Fluorophenyl)-1,3-dimethyl-2,6-dioxo-2,3,6,7-tetrahydro-1H-purin-8-yl)phenyl) acetamide], the “hypoxia-induced HIF-1α expression” value in data set [1] (SkBr3, 1–50 μM, 100 μM CoCl2, 16 h) was “inhibited the hypoxia-induced HIF-1α expression”. Besides, the “hypoxia-induced VEGF expression and production” value in data set [1] (SkBr3, CoCl2, Western blotting and ELISA) was “suppress the VEGF expression and production in a dose-dependent manner”. Further, the “phosphorylation of Akt, mTOR, p70S6K and 4E-BP1” value in data set [2] is “effectively suppressed”. The capillary tube formation entry in the data set with HUVECs is “inhibited the formation of vessel-like structures”. In addition, in data set [3] (ICR, po, 5 mg/kg, p.o. 5 mg/kg), the Tmax is approximately 4.8 h. Also, in data set [3] (iv, i.v. 5 mg/kg), the AUC(0-inf) amounted to 3410 ng·h/mL, the MRT came to 8.2 ± 0.8 h, the clearance is 24.7 mL/min/kg and the AUC(0-t) amounted to 3190 ng·h/mL. Moreover, the half-life in data set [3] (iv, i.v. 5 mg/kg) was 6.4 ± 0.92 h. In addition, the Vd in data set [3] (iv, i.v. 5 mg/kg, read-out: Vss) stood at 12 L/kg. The bioavailability in data set [3] (oral, p.o. vs i.v. 5 mg/kg, read-out: F (bioavailability)) was found to be 95.6%. For the same compound, in data set [3] (po, p.o. 5 mg/kg), the AUC(0-inf) was determined as 3260 ng·h/mL, the Cmax was determined as 236 ± 34 ng/mL, the MRT came out at 9.5 ± 1.9 h and the AUC(0-t) worked out at 3000 ng·h/mL. Further, the half-life in data set [3] (po, p.o. 5 mg/kg) was 6.1 ± 1.4 h. Further, the IC50 in the data set with T47D cells worked out at 9.4 µM. Further, in the data set with MCF-7 cells, the IC50 worked out at 9.15 µM.
